Data: ChEMBL document CHEMBL4422622, “Identification of Mineralocorticoid Receptor Modulators with Low Impact on Electrolyte Homeostasis but Maintained Organ Protection” (J Med Chem, 2019)
Converted amounts (≈) assume the structure as drawn.

What was measured:
[1] = Terminal half life in Han Wistar rat at 1 to 1.2 mg/kg, iv by LC-MS/MS analysis; format: ADME, organism-based; settings: in vivo, read-out: beta t1/2 (converted)
[2] = Intrinsic clearance in Han Wistar rat hepatocytes assessed per million cells at 1 uM after 4 hrs by LC/MS/MS analysis; format: ADME, cell-based, Hepatocyte; settings: read-out: CLH
[3] = Intrinsic clearance in human hepatocytes assessed per million cells at 1 uM measured up to 120 mins in presence of NADPH by LC-MS/MS analysis; format: ADME, cell-based, Hepatocyte; settings: read-out: CLH
[4] = Volume of distribution at steady state in Han Wistar rat at 1 to 1.2 mg/kg, iv by LC-MS/MS analysis; format: ADME, organism-based; settings: in vivo, read-out: Vdss
[5] = target: T1, Mineralocorticoid receptor (Rattus norvegicus, UniProt P22199); settings: u2os
T1 sequence (P22199 whole entry): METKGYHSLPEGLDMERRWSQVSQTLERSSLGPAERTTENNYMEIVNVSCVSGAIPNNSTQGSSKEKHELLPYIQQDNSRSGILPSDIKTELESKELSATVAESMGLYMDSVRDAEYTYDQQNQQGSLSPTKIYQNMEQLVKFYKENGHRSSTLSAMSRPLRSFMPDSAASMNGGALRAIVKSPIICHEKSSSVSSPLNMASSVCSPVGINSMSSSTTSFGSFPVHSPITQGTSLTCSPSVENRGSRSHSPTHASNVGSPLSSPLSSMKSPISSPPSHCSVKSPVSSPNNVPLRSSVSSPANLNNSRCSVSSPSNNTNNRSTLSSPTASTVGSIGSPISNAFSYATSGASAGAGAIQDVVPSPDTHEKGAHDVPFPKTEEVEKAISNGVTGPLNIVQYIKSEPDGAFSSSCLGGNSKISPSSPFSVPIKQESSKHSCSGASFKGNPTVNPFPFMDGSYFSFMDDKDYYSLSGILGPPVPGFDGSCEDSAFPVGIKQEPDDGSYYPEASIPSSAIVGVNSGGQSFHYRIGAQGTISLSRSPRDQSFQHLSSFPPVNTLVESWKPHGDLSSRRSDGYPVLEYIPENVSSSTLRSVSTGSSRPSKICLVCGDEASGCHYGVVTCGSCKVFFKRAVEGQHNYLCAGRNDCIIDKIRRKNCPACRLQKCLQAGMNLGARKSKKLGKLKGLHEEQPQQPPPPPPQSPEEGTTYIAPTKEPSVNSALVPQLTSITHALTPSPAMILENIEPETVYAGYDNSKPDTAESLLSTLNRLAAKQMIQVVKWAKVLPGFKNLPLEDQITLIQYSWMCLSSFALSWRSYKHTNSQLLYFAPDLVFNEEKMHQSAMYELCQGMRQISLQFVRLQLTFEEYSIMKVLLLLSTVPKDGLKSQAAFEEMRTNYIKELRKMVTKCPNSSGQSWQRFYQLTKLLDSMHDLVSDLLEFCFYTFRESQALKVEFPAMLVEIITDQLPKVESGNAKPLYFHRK
Description: Antagonist activity at gal4-fused rat mineralocorticoid receptor LBD in expressed in human U2OS cells by luciferase reporter gene assay

[6] = Fraction unbound in Han Wistar rat plasma at 1 uM after 4 hrs by LC/MS/MS analysis; format: ADME, cell-free
[7] = Octanol-water partitioning co-efficient, log D of the compound at pH 7.4 by LC/MS/MS analysis; format: physicochemical
[8] = Apparent permeability in human Caco2 cells at 10 uM after 45 to 120 mins by LC/MS/MS analysis; format: ADME, cell-based; settings: Caco-2
[9] = Oral bioavailability in Han Wistar rat at 2.7 mg/kg by LC-MS/MS analysis; format: ADME, organism-based; settings: in vivo
[10] = Clearance in Han Wistar rat at 1 to 1.2 mg/kg, iv by LC-MS/MS analysis; format: ADME, organism-based; settings: in vivo
Rattus norvegicus = test: Induction of hyperkalemia in Sprague-Dawley rat fed on low salt diet for 72 hrs assessed as increase in Na+/K+ ratio in urine administered via oral gavage after 8 hrs; format: organism-based; settings: in vivo
[11] = Kinetic solubility of compound at pH 7.4 after 24 hrs by shake-flask assay; format: physicochemical; settings: buffer, read-out: -log(solubility) (converted)
[12] = Clearance in Sprague-Dawley rat at 1 mg/kg, iv by LC-MS/MS analysis; format: ADME, organism-based; settings: in vivo
[13] = Intrinsic clearance in human liver microsomes at 1 uM measured up to 30 mins in presence of NADPH by LC-MS/MS analysis; format: ADME, Microsome; settings: read-out: CLH
Glucocorticoid receptor = target: T2, Glucocorticoid receptor (Homo sapiens, UniProt P04150)
T2 sequence (P04150 whole entry): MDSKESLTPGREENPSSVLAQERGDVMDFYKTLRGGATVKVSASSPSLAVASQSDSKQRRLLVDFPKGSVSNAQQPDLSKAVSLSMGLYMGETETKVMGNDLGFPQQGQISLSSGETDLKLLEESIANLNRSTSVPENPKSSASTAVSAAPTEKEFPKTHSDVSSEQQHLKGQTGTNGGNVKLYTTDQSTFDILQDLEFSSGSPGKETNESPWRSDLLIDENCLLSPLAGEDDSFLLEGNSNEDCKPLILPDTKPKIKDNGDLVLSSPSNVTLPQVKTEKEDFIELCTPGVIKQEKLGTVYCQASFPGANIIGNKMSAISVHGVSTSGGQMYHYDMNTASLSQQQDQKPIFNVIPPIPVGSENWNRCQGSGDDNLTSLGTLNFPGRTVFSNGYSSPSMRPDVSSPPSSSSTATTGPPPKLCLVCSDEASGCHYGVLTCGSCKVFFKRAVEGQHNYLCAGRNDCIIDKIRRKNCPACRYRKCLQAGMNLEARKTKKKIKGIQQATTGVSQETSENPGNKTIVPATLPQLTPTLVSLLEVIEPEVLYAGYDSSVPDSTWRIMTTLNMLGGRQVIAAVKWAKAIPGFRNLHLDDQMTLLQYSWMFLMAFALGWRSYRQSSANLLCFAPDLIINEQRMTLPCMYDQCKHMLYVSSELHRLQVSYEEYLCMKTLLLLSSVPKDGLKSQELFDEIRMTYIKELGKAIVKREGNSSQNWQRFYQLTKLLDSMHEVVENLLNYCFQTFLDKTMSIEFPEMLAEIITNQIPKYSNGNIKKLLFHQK
Description: Binding affinity to recombinant human GR LBD by fluormone GS red-fluorescence polarization assay

[14] = Oral bioavailability in Sprague-Dawley rat at 3 mg/kg by LC-MS/MS analysis; format: ADME, organism-based; settings: in vivo
[15] = Terminal half life in Sprague-Dawley rat at 1 mg/kg, iv by LC-MS/MS analysis; format: ADME, organism-based; settings: in vivo, read-out: beta t1/2 (converted)
Progesterone receptor = target: T3, Progesterone receptor (Homo sapiens, UniProt P06401); test: Binding affinity to recombinant human progesterone receptor LBD by fluormone PL red-fluorescence polarization assay
T3 sequence (P06401 whole entry): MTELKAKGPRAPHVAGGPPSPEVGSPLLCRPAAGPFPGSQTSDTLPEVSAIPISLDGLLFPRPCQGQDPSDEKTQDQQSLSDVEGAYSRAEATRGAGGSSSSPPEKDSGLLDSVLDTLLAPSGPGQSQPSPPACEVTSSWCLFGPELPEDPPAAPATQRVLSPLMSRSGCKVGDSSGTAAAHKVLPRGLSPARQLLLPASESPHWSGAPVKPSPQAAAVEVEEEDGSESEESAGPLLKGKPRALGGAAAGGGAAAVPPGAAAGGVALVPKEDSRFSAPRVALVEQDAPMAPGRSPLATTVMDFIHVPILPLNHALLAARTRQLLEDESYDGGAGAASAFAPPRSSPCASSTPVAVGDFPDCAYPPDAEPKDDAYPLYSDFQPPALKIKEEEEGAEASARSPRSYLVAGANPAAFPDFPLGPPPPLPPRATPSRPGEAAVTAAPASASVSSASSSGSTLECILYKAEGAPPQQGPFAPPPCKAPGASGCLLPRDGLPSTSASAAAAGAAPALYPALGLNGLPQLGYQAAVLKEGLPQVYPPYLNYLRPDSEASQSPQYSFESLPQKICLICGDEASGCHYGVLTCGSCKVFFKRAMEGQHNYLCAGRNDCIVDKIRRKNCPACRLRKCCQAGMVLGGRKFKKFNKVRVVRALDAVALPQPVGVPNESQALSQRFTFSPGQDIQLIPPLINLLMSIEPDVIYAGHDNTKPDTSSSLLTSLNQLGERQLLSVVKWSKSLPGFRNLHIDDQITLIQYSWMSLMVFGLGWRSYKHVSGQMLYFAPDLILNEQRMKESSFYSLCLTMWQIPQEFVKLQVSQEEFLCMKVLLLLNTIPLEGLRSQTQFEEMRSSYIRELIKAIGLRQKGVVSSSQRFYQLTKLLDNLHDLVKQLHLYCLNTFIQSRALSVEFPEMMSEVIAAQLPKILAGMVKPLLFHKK

[16] = Volume of distribution at steady state in Sprague-Dawley rat at 1 mg/kg, iv by LC-MS/MS analysis; format: ADME, organism-based; settings: in vivo, read-out: Vdss

half-life [1]	hepatocyte CLint at 1 µM [2]	hepatocyte CLint at 1 µM [3]	Vd [4]	pIC50 [5]	fraction unbound at 4 h, 1 µM [6]	logD [7]	Papp at 10 µM [8]	bioavailability [9]	clearance [10]	solubility kinetic at 24 h [11]	clearance [12]	microsomal CLint at 1 µM [13]	Ki (Glucocorticoid receptor)	bioavailability [14]	half-life [15]	Ki (Progesterone receptor)	Vd [16]	Structure (SMILES)	Activity (Rattus norvegicus)
0.48 h	5 µL/min/1e6 cells	< 1 µL/min/1e6 cells	0.7 L/kg	7.1	0.61	1.4	5 ×10⁻⁶ cm/s	32%	24 mL/min/kg	–	–	–	–	–	–	–	–	CNC(=O)C[C@H]1COc2cc(F)ccc2N1C(=O)c1ccc2c(c1)NC(=O)CO2 [BALCINRENONE]	Non-Toxic
–	14 µL/min/1e6 cells	–	–	–	0.091	2.6	–	–	–	25.1 µM (≈ 8.6 µg/mL)	8 mL/min/kg	8 µL/min/mg	1.26 µM	76%	2.4 h	25.1 µM	1.7 L/kg	C[C@H]1COc2cc(F)ccc2N1C(=O)c1ccc2c(c1)NC(=O)CO2	Toxic
